In brackets after ≈: the same amount, converted by molar mass.
Legend:
[1] = Half life in rat liver microsomes in presence of NADPH; type: ADME, Microsome
[2] = molecular target: Voltage-gated inwardly rectifying potassium channel KCNH2 (Homo sapiens, UniProt Q12809); test: Displacement of [3H]dofetilide from recombinant human ERG stably expressed in HEK293 cell membranes measured after 90 mins by microbeta liquid scintillation counting method; set-up: species or system Cell membrane
Cytochrome P450 2C9 = Cytochrome P450 2C9 (Homo sapiens, UniProt P11712); test: Reversible inhibition of CYP2C9 in human liver microsomes using […] as substrate incubated for 10 mins in presence of NADPH by LC-MS analysis; type: ADME
Cytochrome P450 2D6 = Cytochrome P450 2D6 (Homo sapiens, UniProt P10635); test: Reversible inhibition of CYP2D6 in human liver microsomes using […] as substrate incubated for 10 mins in presence of NADPH by LC-MS analysis; type: ADME
Cytochrome P450 3A5 = Cytochrome P450 3A5 (Homo sapiens, UniProt P20815); test: Reversible inhibition of CYP3A5 in human liver microsomes using midazolam as substrate incubated for 10 mins in presence of NADPH by LC-MS analysis; type: ADME
[3] = Solubility of compound in aqueous buffer at pH 6.8 by HPLC analysis; type: physicochemical
[4] = molecular target: T1, Leukotriene A-4 hydrolase (Homo sapiens, UniProt P09960); test: Inhibition of LTA4H in human whole blood assessed as reduction of calcium ionophore A23187-stimulated LTB4 generation preincubated for 4 hrs followed by ionophore stimulation and measured after 15 hrs by EIA assay; type: tissue-based
T1 sequence (P09960 whole entry): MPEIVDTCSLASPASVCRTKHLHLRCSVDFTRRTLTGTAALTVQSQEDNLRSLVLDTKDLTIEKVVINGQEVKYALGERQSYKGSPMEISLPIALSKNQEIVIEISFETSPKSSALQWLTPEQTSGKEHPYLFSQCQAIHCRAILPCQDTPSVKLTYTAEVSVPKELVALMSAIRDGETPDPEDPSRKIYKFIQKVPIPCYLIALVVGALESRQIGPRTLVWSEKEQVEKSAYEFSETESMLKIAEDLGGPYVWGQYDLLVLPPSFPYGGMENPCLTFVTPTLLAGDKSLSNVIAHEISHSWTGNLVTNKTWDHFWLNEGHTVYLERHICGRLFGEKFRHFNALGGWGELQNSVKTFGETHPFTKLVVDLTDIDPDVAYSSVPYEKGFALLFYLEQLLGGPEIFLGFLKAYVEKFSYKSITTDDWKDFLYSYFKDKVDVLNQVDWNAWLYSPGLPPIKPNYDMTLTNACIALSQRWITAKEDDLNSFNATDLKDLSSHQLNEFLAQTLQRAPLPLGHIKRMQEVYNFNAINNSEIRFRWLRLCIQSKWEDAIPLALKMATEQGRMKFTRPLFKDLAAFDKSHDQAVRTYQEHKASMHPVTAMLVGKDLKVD

[5] = molecular target: T1, Leukotriene A-4 hydrolase; test: Inhibition of LTA4H in human PBMC assessed as reduction of calcium ionophore A23187-stimulated LTB4 generation preincubated for 4 hrs followed by ionophore stimulation and measured after 2 hrs by EIA assay; type: tissue-based
[6] = molecular target: T1, Leukotriene A-4 hydrolase; test: (§1) Inhibition of recombinant full length N-terminal His6-tagged LTA4H (unknown origin) expressed in Escherichia coli BL21 DE3 cells at enzyme concentration <1 nM using Arg-AMC as substrate preincubated for 15 mins followed by substrate addition and measured every 10 mins for 300 mins by fluorescence based assay
[7] = Drug concentration in blood isolated from C57/BL6 mouse at 0.625 mg/kg, po BID for 3 days measured after 2 hrs post last dose; type: ADME, organism-based; conditions: time 3 day, read-out: Ct
[8] = Drug concentration in blood isolated from C57/BL6 mouse at […], po BID for 3 days measured after 2 hrs post last dose; type: ADME, organism-based; conditions: dose 2.5 mg/kg, time 3 day, read-out: Ct
[9] = Drug concentration in blood isolated from C57/BL6 mouse at 10 mg/kg, po BID for 3 days measured after 2 hrs post last dose; type: ADME, organism-based; conditions: time 3 day, read-out: Ct
[10] = Drug concentration in plasma isolated from C57/BL6 mouse at 0.625 mg/kg, po BID for 3 days measured after 2 hrs post last dose; type: ADME, organism-based; conditions: time 3 day
[11] = Drug concentration in plasma isolated from C57/BL6 mouse at […], po BID for 3 days measured after 2 hrs post last dose; type: ADME, organism-based; conditions: dose 2.5 mg/kg, time 3 day
[12] = Drug concentration in plasma isolated from C57/BL6 mouse at 10 mg/kg, po BID for 3 days measured after 2 hrs post last dose; type: ADME, organism-based; conditions: time 3 day
[13] = Drug concentration in blood isolated from C57/BL6 mouse at 0.625 mg/kg, po BID for 3 days measured after 14 hrs post last dose; type: ADME, organism-based; conditions: time 3 day, read-out: Ct
[14] = Drug concentration in blood isolated from C57/BL6 mouse at […], po BID for 3 days measured after 14 hrs post last dose; type: ADME, organism-based; conditions: dose 2.5 mg/kg, time 3 day, read-out: Ct
[15] = Drug concentration in blood isolated from C57/BL6 mouse at 10 mg/kg, po BID for 3 days measured after 14 hrs post last dose; type: ADME, organism-based; conditions: time 3 day, read-out: Ct
[16] = Drug concentration in plasma isolated from C57/BL6 mouse at 0.625 mg/kg, po BID for 3 days measured after 14 hrs post last dose; type: ADME, organism-based; conditions: time 3 day
[17] = Drug concentration in plasma isolated from C57/BL6 mouse at […], po BID for 3 days measured after 14 hrs post last dose; type: ADME, organism-based; conditions: dose 2.5 mg/kg, time 3 day
[18] = Drug concentration in plasma isolated from C57/BL6 mouse at 10 mg/kg, po BID for 3 days measured after 14 hrs post last dose; type: ADME, organism-based; conditions: time 3 day
[19] = molecular target: T2, Leukotriene A-4 hydrolase (Homo sapiens) (UniProt P09960); conditions: Blood, time 19.0 hrs
T2 sequence (whole entry): T1 sequence (P09960 whole entry)

[20] = molecular target: T2, Leukotriene A-4 hydrolase (Homo sapiens); conditions: PBMC, time 6.0 hrs
[21] = molecular target: T1, Leukotriene A-4 hydrolase; test: as §1, with “9” for “<1”
[22] = molecular target: T2, Leukotriene A-4 hydrolase (Homo sapiens); conditions: dose 125.0 µM, time 30.0 min
[23] = molecular target: T2, Leukotriene A-4 hydrolase (Homo sapiens); conditions: dose 250.0 µM, time 30.0 min
[24] = molecular target: T2, Leukotriene A-4 hydrolase (Homo sapiens); conditions: dose 500.0 µM, time 30.0 min
[25] = molecular target: T2, Leukotriene A-4 hydrolase (Homo sapiens); conditions: dose 1000.0 µM, time 30.0 min

Voltage-gated inwardly rectifying potassium channel KCNH2, sequence (Q12809 whole entry): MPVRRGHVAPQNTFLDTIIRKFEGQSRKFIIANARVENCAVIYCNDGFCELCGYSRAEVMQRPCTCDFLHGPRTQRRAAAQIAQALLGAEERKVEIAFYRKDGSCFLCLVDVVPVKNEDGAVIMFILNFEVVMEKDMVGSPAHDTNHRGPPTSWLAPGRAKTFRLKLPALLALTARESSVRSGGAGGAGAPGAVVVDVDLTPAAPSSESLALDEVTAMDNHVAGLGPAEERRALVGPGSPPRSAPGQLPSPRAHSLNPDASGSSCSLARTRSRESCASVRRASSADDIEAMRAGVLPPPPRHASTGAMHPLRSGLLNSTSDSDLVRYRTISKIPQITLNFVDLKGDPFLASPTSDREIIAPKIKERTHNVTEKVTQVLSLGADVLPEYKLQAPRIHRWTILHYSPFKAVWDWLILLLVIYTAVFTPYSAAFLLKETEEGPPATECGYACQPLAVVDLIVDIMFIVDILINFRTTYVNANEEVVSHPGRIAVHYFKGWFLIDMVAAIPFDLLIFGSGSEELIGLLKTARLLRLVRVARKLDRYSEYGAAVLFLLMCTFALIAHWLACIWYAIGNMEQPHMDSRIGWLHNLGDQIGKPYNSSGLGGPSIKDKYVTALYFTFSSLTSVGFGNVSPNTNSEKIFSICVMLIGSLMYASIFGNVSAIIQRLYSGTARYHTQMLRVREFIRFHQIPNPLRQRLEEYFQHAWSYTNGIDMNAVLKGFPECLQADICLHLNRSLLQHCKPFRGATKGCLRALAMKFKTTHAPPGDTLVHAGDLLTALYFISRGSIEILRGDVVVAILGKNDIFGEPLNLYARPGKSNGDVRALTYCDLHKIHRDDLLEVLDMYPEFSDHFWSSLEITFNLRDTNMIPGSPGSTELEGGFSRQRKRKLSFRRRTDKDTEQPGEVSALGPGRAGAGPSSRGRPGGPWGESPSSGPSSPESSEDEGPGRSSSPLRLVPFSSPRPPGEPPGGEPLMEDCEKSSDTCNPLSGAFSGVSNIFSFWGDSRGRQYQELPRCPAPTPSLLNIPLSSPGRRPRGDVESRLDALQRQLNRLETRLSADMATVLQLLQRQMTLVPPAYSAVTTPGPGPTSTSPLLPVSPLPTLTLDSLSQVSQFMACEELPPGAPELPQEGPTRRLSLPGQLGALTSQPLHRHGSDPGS
Cytochrome P450 3A5, sequence (P20815 whole entry): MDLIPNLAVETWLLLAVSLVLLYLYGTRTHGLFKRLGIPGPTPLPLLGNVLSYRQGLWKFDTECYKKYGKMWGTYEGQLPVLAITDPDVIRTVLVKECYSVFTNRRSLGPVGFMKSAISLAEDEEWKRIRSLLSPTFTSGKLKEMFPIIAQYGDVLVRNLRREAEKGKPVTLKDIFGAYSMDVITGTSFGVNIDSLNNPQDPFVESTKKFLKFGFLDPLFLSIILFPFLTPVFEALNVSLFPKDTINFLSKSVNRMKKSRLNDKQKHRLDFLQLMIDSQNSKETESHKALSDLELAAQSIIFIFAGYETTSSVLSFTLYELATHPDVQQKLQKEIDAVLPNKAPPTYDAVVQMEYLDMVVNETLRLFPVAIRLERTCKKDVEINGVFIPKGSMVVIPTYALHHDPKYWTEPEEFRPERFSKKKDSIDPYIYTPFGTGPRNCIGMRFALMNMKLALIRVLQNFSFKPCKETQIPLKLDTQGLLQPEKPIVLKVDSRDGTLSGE
Cytochrome P450 2C9, sequence (P11712 whole entry): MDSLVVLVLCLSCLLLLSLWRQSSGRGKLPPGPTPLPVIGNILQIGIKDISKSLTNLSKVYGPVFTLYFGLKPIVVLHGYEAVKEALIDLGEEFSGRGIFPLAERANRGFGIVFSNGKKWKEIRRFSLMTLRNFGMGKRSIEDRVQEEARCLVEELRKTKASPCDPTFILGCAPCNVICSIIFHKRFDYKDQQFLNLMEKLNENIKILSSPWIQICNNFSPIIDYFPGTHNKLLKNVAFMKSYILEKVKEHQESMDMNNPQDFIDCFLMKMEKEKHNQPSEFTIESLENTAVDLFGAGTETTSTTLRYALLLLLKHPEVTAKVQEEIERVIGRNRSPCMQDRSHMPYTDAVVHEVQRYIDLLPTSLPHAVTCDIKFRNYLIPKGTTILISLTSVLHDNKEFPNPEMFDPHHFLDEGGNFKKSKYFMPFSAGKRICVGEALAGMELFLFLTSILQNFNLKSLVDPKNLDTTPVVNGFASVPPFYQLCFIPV
Cytochrome P450 2D6, sequence (P10635 whole entry): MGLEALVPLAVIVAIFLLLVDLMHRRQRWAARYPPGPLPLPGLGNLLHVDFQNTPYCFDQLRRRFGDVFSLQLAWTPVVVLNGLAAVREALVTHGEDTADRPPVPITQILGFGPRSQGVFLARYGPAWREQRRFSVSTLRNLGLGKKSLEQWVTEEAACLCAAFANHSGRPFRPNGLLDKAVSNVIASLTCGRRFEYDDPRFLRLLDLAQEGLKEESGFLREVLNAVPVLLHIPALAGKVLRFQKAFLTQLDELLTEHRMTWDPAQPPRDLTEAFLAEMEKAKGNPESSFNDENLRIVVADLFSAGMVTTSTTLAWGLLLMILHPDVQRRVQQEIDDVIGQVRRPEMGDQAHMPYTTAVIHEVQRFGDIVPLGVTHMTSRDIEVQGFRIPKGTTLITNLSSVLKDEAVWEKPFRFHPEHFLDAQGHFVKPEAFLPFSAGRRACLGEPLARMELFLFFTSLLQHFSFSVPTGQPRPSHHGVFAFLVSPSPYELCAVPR

C[C@@H](N)Cn1nnc(-c2ccc(Oc3ccc(Cl)cc3)cc2)n1
half-life [1]: 33 min | IC50 [2]: > 30 µM | IC50 (Cytochrome P450 2C9): > 20 µM | IC50 (Cytochrome P450 2D6): > 20 µM | IC50 (Cytochrome P450 3A5): > 20 µM

NCCCn1nnc(-c2ccc(Oc3ccc(Cl)cc3)cc2)n1
half-life [1]: 30 min | IC50 [2]: 4.8 µM | IC50 (Cytochrome P450 2C9): > 20 µM | IC50 (Cytochrome P450 2D6): > 20 µM | IC50 (Cytochrome P450 3A5): > 20 µM

N[C@H](CC(=O)O)Cn1nnc(-c2ccc(OCCc3ccccc3)cc2)n1
solubility [3]: 23 µM (≈ 8.45 µg/mL)

Cc1ccc(Oc2ccc(-c3nnn(CCN)n3)cc2)cc1
half-life [1]: 5 min | IC50 [2]: 5.8 µM | IC50 (Cytochrome P450 2C9): 1.4 µM | IC50 (Cytochrome P450 2D6): 14 µM | IC50 (Cytochrome P450 3A5): > 20 µM

O=C(O)c1ccc(CN2C[C@@H]3C[C@H]2CN3Cc2ccc(Oc3ccc(-c4ncco4)cc3)cc2)cc1 [ACEBILUSTAT]
IC50 [4]: 0.142 µM | IC50 [5]: 0.024 µM | IC50 [6]: 0.0049 µM | concentration at 72 h [7]: 488 nM | concentration at 72 h [8]: 1860 nM | concentration at 72 h [9]: 7620 nM | concentration at 72 h [10]: 597 nM | concentration at 72 h [11]: 3820 nM | concentration at 72 h [12]: 14600 nM | concentration at 72 h [13]: 32 nM | concentration at 72 h [14]: 166 nM | concentration at 72 h [15]: 554 nM | concentration at 72 h [16]: 9 nM | concentration at 72 h [17]: 94 nM | concentration at 72 h [18]: 826 nM | IC90 [19]: 0.728 µM | IC90 [20]: 0.181 µM

C[C@H](Cc1ccccc1)Oc1ccc(-c2nnn(C[C@@H](N)CC(=O)O)n2)cc1
solubility [3]: 391 µM (≈ 149 µg/mL)

CC(=O)NCCn1nnc(-c2ccc(Oc3ccc(Cl)cc3)cc2)n1
half-life [1]: > 55 min | IC50 [2]: > 30 µM | IC50 (Cytochrome P450 2C9): > 20 µM | IC50 (Cytochrome P450 2D6): > 20 µM | IC50 (Cytochrome P450 3A5): > 20 µM

OCc1ccc(Oc2ccccc2)cc1
IC50 [21]: 4.5 µM | ΔTm [22]: 0.08 °C | ΔTm [23]: 0.2 °C | ΔTm [24]: 0.2 °C | ΔTm [25]: 0.3 °C

O=C(O)CCCn1nnc(-c2ccc(Oc3ccc(Cl)cc3)cc2)n1
half-life [1]: 405 min | IC50 [2]: > 30 µM | IC50 (Cytochrome P450 2C9): > 20 µM | IC50 (Cytochrome P450 2D6): > 20 µM | IC50 (Cytochrome P450 3A5): > 20 µM

NCCn1nnc(-c2ccc(Oc3ccc(Cl)cc3)cc2)n1
half-life [1]: 15 min

O=C(O)CNCCn1nnc(-c2ccc(Oc3ccc(Cl)cc3)cc2)n1
half-life [1]: 142 min

CCCCCOc1ccc(-c2nnn(C[C@H](N)CC(=O)O)n2)cc1
solubility [3]: 65 µM (≈ 21.7 µg/mL)

O=C(O)CCn1nnc(-c2ccc(Oc3ccc(Cl)cc3)cc2)n1
half-life [1]: 114 min | IC50 [2]: > 30 µM | IC50 (Cytochrome P450 2C9): > 20 µM | IC50 (Cytochrome P450 2D6): > 20 µM | IC50 (Cytochrome P450 3A5): > 20 µM

N[C@H](CC(=O)O)Cn1nnc(-c2ccc(Oc3ccc(F)cc3)cc2)n1
solubility [3]: 135 µM (≈ 48.2 µg/mL)

C[C@H](CN)n1nnc(-c2ccc(Oc3ccc(Cl)cc3)cc2)n1
half-life [1]: 15 min | IC50 [2]: > 30 µM | IC50 (Cytochrome P450 2C9): 2 µM | IC50 (Cytochrome P450 2D6): 11 µM | IC50 (Cytochrome P450 3A5): > 20 µM

N[C@H](CC(=O)O)Cn1nnc(-c2ccc(Oc3ccc(Cl)cn3)cc2)n1
solubility [3]: 344 µM (≈ 129 µg/mL)

N[C@H](CC(=O)O)Cn1nnc(-c2ccc(Oc3ccc(-c4ncco4)cc3)cc2)n1
solubility [3]: 17 µM (≈ 6.91 µg/mL)

N[C@@H](CC(=O)O)Cn1nnc(-c2ccc(Oc3nc4ccccc4s3)cc2)n1
solubility [3]: 35 µM (≈ 13.9 µg/mL)

CC(=O)N[C@H]1C[C@H]2CC[C@@H](C1)N2Cc1ccc(Oc2nc3ncccc3s2)cc1
IC50 [4]: 0.048 µM | IC50 [5]: 0.018 µM | IC50 [6]: 0.0019 µM | IC90 [19]: 0.104 µM | IC90 [20]: 0.092 µM

N[C@@H](CC(=O)O)Cn1nnc(-c2ccc(Oc3ccc(Cl)cc3)cc2)n1
half-life [1]: 190 min | solubility [3]: 26 µM (≈ 9.72 µg/mL)

COc1cnc(Oc2ccc(-c3nnn(C[C@H](N)CC(=O)O)n3)cc2)nc1
solubility [3]: > 1000 µM

N[C@H](CC(=O)O)Cn1nnc(-c2ccc(Oc3nc4ccccc4s3)cc2)n1
solubility [3]: 23 µM (≈ 9.12 µg/mL)

O=C(O)CCCN1CCC[C@H]1COc1ccc(Oc2ccc(Cl)cc2)cc1
IC90 [19]: 5.05 µM | IC90 [20]: 1.07 µM

N[C@@H](Cn1nnc(-c2ccc(Oc3ccc(Cl)cc3)cc2)n1)C(=O)O
half-life [1]: > 55 min

N[C@H](CC(=O)O)Cn1nnc(-c2ccc(Oc3ccc(Cl)cc3)cc2)n1
half-life [1]: 240 min | solubility [3]: 28 µM (≈ 10.5 µg/mL)

N[C@H](CC(=O)O)Cn1nnc(-c2ccc(Oc3ncc(Cl)cc3F)cc2)n1
solubility [3]: 398 µM (≈ 156 µg/mL)

N[C@@H](CC(=O)O)Cn1nnc(-c2ccc(COCc3ccccc3)cc2)n1
solubility [3]: 166 µM (≈ 61 µg/mL)

Reference: ChEMBL document CHEMBL4834397 (J Med Chem, 2021)
